The source of these data is patent US10322995B2, “Substituted cyano cycloalkyl penta-2,4-dienes, cyano cycloalkyl pent-2-en-4-ynes, cyano heterocyclyl penta-2,4-dienes and cyano heterocyclyl pent-2-en-4-ynes as active substances against abiotic plant stress” (BAYER CROPSCIENCE AKTIENGESELLSCHAFT, priority 2014, dated 2019).

In experiment [1] the test system is Brassica napus (BRSNS). Nature of the experiment: In vivo analyses Part C: drought stress, appearance vs stressed control plants in categories (BRSNS). Details: key: 0: no positive effect; 10: slight positive effect; 20: clear positive effect; 30: strong positive effect. The following applies: appearance vs stressed control plants after recovery phase, efficacy range of 3-4 pots. As to the method:
Seeds of monocotyledonous and dicotyledonous crop plants were sown in sandy loam in plastic or wood-fibre pots, covered with soil or sand and cultivated in a greenhouse under good growth conditions. The test plants were treated at the early leaf stage (BBCH10-BBCH13). To assure uniform water supply before commencement of stress, the potted plants were supplied with water by dam irrigation prior to substance application. The inventive compounds were first formulated as wettable powders (WP) or dissolved in a solvent mixture. The further dilution was effected with water supplemented with 0.2% wetting agent (e.g. agrotin). The finished spray liquor was sprayed onto the green parts of the plant at an equivalent water application rate of 600 I/ha. Substance application was followed immediately by stress treatment of the plants. For this purpose, the wood-fibre pots were transferred in plastic inserts in order to prevent them from subsequently drying out too quickly. Drought stress was induced by gradual drying out under the following conditions: “Day”: 14 hours with illumination at 26-30° C. “Night”: 10 hours without illumination at 18-20° C. The duration of the respective stress phases was guided mainly by the condition of the stressed control plants. It was ended (by re-irrigating and transfer to a greenhouse with good growth conditions) as soon as irreversible damage was observed on the stressed control plants. The end of the stress phase was followed by an about 4-7-day recovery phase, during which the plants were once again kept under good growth conditions in a greenhouse. The duration of the recovery phase was guided mainly by when the trial plants had attained a state which enabled visual scoring of potential effects, and was therefore variable. Once this juncture had been reached, the appearance of the plants treated with test substances was recorded in comparison to the stressed control plants by the following categories: [table] For each substance and dosage, 3-4 pots were treated and evaluated. BRSNS=Brassica napus

The test system of experiment [2] is Brassica napus (BRSNS). The experiment in a line: In vivo analyses Part A: drought stress, visual damage scoring, efficacy EF (BRSNS). The settings on record: spray application 250 g/ha, efficacy = reduction in damage intensity. As to the method: (§1) Seeds of monocotyledonous and dicotyledonous crop plants were sown in sandy loam in wood-fibre pots, covered with soil or sand and cultivated in a greenhouse under good growth conditions. The test plants were treated at the early leaf stage (BBCH10-BBCH13). To assure uniform water supply before commencement of stress, the potted plants were supplied with water by dam irrigation prior to substance application. The inventive compounds, formulated in the form of wettable powders (WP), were sprayed onto the green parts of the plants as an aqueous suspension at an equivalent water application rate of 600 I/ha with addition of 0.2% wetting agent (e.g. agrotin). Substance application was followed immediately by stress treatment of the plants. For this purpose, the pots were transferred in plastic inserts in order to prevent them from subsequently drying out too quickly. Drought stress was induced by gradual drying out under the following conditions: “Day”: 14 hours with illumination at 26° C. “Night”: 10 hours without illumination at 18° C. The duration of the respective stress phases was guided mainly by the condition of the stressed control plants. It was ended (by re-irrigating and transfer to a greenhouse with good growth conditions) as soon as irreversible damage was observed on the stressed control plants. The end of the stress phase was followed by an about 4-7-day recovery phase, during which the plants were once again kept under good growth conditions in a greenhouse. The duration of the recovery phase was guided mainly by when the trial plants had attained a state which enabled visual scoring of potential effects, and was therefore variable. Once this juncture was reached, the intensities of damage were scored visually in comparison to untreated, unstressed controls of the same age. The damage intensity was at first assessed in percent. […]

Experiment [3] relates to Triticum aestivum (TRZAS). The experiment in a line: In vivo analyses Part A: drought stress, visual damage scoring, efficacy EF (TRZAS). The following applies: spray application 25 g/ha, efficacy = reduction in damage intensity. The protocol:
as §1

Consider `CCC(C=CC(O)(c1ccccc1)C1(C#N)CC1)=CC(=O)O` (racemic) [I.2-201], for which the “Effect (BRSNS)” value in experiment [1] (dosage 250 g/ha) is reported as 10-30.

With `CCOC(=O)/C=C(\C#CC(O)(C(C)C)C1(C#N)CC1)C1CC1` (stereo not drawn) [I.1-124, Ethyl (2Z)-6-(1-cyanocyclopropyl)-3-cyclopropyl-6-hydroxy-7-methyloct-2-en-4-ynoate], in experiment [2], the “EF [%] (BRSNS)” value is recorded as above 5%. For the same compound, the “EF [%] (TRZAS)” value in experiment [3] was above 5%.

As to `CCOC(=O)/C=C(/C)C#CC(O)(C(C)C)C1(C#N)CC1` (stereo not drawn) [I.1-136], the “EF [%] (BRSNS)” value in experiment [2] is listed as above 5%. Also, the “EF [%] (TRZAS)” value in experiment [3] is listed as above 5%.

With `CC/C(C#CC(O)(C1CCC1)C1(C#N)CC1)=C/C(=O)OC` (stereo not drawn) [I.1-648], the “Effect (BRSNS)” value in experiment [1] (dosage 25 g/ha) is on record as 30.
